{"source": "paper PMC10819888", "about": "“Benzimidazole-Based Derivatives as Apoptotic Antiproliferative Agents: Design, Synthesis, Docking, and Mechanistic Studies” (Molecules, 2024)", "key": {"[1]": {"system": "K-562", "test": "NCI-60 five-dose assay", "assay_type": "cell-based, human", "conditions": "K-562, Leukemia"}, "[2]": {"system": "MOLT-4", "test": "NCI-60 five-dose assay", "assay_type": "cell-based, human", "conditions": "MOLT-4, Leukemia"}, "[3]": {"system": "EKVX", "test": "NCI-60 five-dose assay", "assay_type": "cell-based, human", "conditions": "EKVX, Non-Small Cell Lung Cancer"}, "[4]": {"system": "HOP-92", "test": "NCI-60 five-dose assay", "assay_type": "cell-based, human", "conditions": "HOP-92, Non-Small Cell Lung Cancer"}, "[5]": {"system": "NCI-H23", "test": "NCI-60 five-dose assay", "assay_type": "cell-based, human", "conditions": "NCI-H23, Non-Small Cell Lung Cancer"}, "[6]": {"system": "NCI-H460", "test": "NCI-60 five-dose assay", "assay_type": "cell-based, human", "conditions": "NCI-H460, Non-Small Cell Lung Cancer"}, "[7]": {"system": "NCI-H522", "test": "NCI-60 five-dose assay", "assay_type": "cell-based, human", "conditions": "NCI-H522, Non-Small Cell Lung Cancer"}, "[8]": {"system": "HT29", "test": "NCI-60 five-dose assay", "assay_type": "cell-based, human", "conditions": "HT29, Colon Cancer"}, "[9]": {"system": "SF-268", "test": "NCI-60 five-dose assay", "assay_type": "cell-based, human", "conditions": "SF-268, CNS Cancer"}, "[10]": {"system": "SF-539", "test": "NCI-60 five-dose assay", "assay_type": "cell-based, human", "conditions": "SF-539, CNS Cancer"}, "[11]": {"system": "LOX IMVI", "test": "NCI-60 five-dose assay", "assay_type": "cell-based, human", "conditions": "LOX IMVI, Melanoma"}, "[12]": {"system": "MDA-MB-435", "test": "NCI-60 five-dose assay", "assay_type": "cell-based, human", "conditions": "MDA-MB-435, Melanoma"}, "[13]": {"system": "SK-MEL-2", "test": "NCI-60 five-dose assay", "assay_type": "cell-based, human", "conditions": "SK-MEL-2, Melanoma"}, "[14]": {"system": "IGROV1", "test": "NCI-60 five-dose assay", "assay_type": "cell-based, human", "conditions": "IGROV1, Ovarian Cancer"}, "[15]": {"system": "OVCAR-8", "test": "NCI-60 five-dose assay", "assay_type": "cell-based, human", "conditions": "OVCAR-8, Ovarian Cancer"}, "[16]": {"system": "CAKI-1", "test": "NCI-60 five-dose assay", "assay_type": "cell-based, human", "conditions": "CAKI-1, Renal Cancer"}, "[17]": {"system": "RXF 393", "test": "NCI-60 five-dose assay", "assay_type": "cell-based, human", "conditions": "RXF 393, Renal Cancer"}, "[18]": {"system": "TK-10", "test": "NCI-60 five-dose assay", "assay_type": "cell-based, human", "conditions": "TK-10, Renal Cancer"}, "[19]": {"system": "UO-31", "test": "NCI-60 five-dose assay", "assay_type": "cell-based, human", "conditions": "UO-31, Renal Cancer"}, "[20]": {"system": "PC-3", "test": "NCI-60 five-dose assay", "assay_type": "cell-based, human", "conditions": "PC-3, Prostate Cancer"}, "[21]": {"system": "MDA-MB-468", "test": "NCI-60 five-dose assay", "assay_type": "cell-based, human", "conditions": "MDA-MB-468, Breast Cancer"}, "[22]": {"system": "Non-Small Cell Lung Cancer subpanel", "test": "NCI-60 five-dose assay, subpanel", "assay_type": "cell-based, human", "conditions": "Non-Small Cell Lung Cancer"}, "[23]": {"system": "Colon Cancer subpanel", "test": "NCI-60 five-dose assay, subpanel", "assay_type": "cell-based, human", "conditions": "Colon Cancer"}, "[24]": {"system": "CNS Cancer subpanel", "test": "NCI-60 five-dose assay, subpanel", "assay_type": "cell-based, human", "conditions": "CNS Cancer"}, "[25]": {"molecular_target": "BRAF^V600E", "sequence (P28028 whole entry V585E)": "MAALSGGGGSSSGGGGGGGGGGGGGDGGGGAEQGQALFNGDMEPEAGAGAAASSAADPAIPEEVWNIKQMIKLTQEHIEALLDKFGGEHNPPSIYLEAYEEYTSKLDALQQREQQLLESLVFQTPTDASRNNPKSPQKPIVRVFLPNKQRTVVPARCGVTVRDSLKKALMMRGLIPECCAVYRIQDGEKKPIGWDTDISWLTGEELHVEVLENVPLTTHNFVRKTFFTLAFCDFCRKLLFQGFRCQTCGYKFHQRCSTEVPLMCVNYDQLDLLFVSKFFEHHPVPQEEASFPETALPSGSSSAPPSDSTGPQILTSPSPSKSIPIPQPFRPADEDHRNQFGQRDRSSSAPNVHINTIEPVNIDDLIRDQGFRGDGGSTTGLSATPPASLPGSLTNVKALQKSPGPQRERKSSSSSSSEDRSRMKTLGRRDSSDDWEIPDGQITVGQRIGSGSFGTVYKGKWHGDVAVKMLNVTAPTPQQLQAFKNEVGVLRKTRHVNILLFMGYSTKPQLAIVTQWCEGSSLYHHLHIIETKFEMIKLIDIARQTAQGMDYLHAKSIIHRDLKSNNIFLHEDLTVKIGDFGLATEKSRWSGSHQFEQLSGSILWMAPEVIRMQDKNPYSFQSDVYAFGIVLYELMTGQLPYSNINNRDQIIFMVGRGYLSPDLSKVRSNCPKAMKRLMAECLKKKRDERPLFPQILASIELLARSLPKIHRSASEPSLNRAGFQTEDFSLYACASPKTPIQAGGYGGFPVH", "test": "biochemical"}, "[26]": {"conditions": "Homo sapiens, read-out: GI50 Conc. per Cell Line"}, "[27]": {"conditions": "Homo sapiens, read-out: LC50 (the source's name)"}, "[28]": {"conditions": "Homo sapiens, average sensitivity of all subpanel cell lines, read-out: GI50 Subpanel MID b"}}, "data": [{"smiles": "COc1ccc(C=NNC(=O)c2ccc3[nH]c(-c4ccc(Cl)cc4)nc3c2)cc1", "note": "[Compound 4g, N′-(4-Methoxybenzylidene)-2-(4-chlorophenyl)-1H-benzimidazole-5-carbohydrazide]", "values": [{"measurement": "GI50", "setting": "[1]; Homo sapiens, K562, read-out: GI50 Conc. per Cell Line", "value": 2.69, "unit": "µM"}, {"measurement": "CC50", "setting": "[1]; Homo sapiens, K562, read-out: LC50 (the source's name)", "value": "> 100", "unit": "µM"}, {"measurement": "TGI", "setting": "[1]", "value": 11.20, "unit": "µM"}, {"measurement": "GI50", "setting": "[2]; [26]", "value": 4.53, "unit": "µM"}, {"measurement": "CC50", "setting": "[2]; [27]", "value": "> 100", "unit": "µM"}, {"measurement": "TGI", "setting": "[2]", "value": 30.40, "unit": "µM"}, {"measurement": "TGI", "setting": "[3]", "value": 5.84, "unit": "µM"}, {"measurement": "GI50", "setting": "[3]; [26]", "value": 2.11, "unit": "µM"}, {"measurement": "CC50", "setting": "[3]; [27]", "value": 36.6, "unit": "µM"}, {"measurement": "TGI", "setting": "[4]", "value": 4.11, "unit": "µM"}, {"measurement": "LC50 (50% lethal concentration)", "setting": "[4]; Homo sapiens", "value": 15.1, "unit": "µM"}, {"measurement": "GI50", "setting": "[4]; [26]", "value": 1.52, "unit": "µM"}, {"measurement": "GI50", "setting": "[5]; [26]", "value": 2.74, "unit": "µM"}, {"measurement": "CC50", "setting": "[5]; [27]", "value": 75.9, "unit": "µM"}, {"measurement": "TGI", "setting": "[5]", "value": 11.20, "unit": "µM"}, {"measurement": "LC50", "setting": "[6]; Homo sapiens", "value": 7.05, "unit": "µM"}, {"measurement": "GI50", "setting": "[6]; [26]", "value": 1.83, "unit": "µM"}, {"measurement": "TGI", "setting": "[6]", "value": 3.59, "unit": "µM"}, {"measurement": "GI50", "setting": "[7]; [26]", "value": 7.6, "unit": "µM"}, {"measurement": "CC50", "setting": "[7]; [27]", "value": "> 100", "unit": "µM"}, {"measurement": "TGI", "setting": "[7]", "value": 81.50, "unit": "µM"}, {"measurement": "TGI", "setting": "[8]", "value": 22.10, "unit": "µM"}, {"measurement": "GI50", "setting": "[8]; Homo sapiens, HT-29, read-out: GI50 Conc. per Cell Line", "value": 3.09, "unit": "µM"}, {"measurement": "CC50", "setting": "[8]; Homo sapiens, HT-29, read-out: LC50 (the source's name)", "value": "> 100", "unit": "µM"}, {"measurement": "GI50", "setting": "[9]; [26]", "value": 2.09, "unit": "µM"}, {"measurement": "CC50", "setting": "[9]; [27]", "value": 20.8, "unit": "µM"}, {"measurement": "TGI", "setting": "[9]", "value": 5.10, "unit": "µM"}, {"measurement": "GI50", "setting": "[10]; [26]", "value": 1.73, "unit": "µM"}, {"measurement": "CC50", "setting": "[10]; [27]", "value": 6.92, "unit": "µM"}, {"measurement": "TGI", "setting": "[10]", "value": 3.46, "unit": "µM"}, {"measurement": "GI50", "setting": "[11]; [26]", "value": 2.19, "unit": "µM"}, {"measurement": "CC50", "setting": "[11]; [27]", "value": 7.34, "unit": "µM"}, {"measurement": "TGI", "setting": "[11]", "value": 4.01, "unit": "µM"}, {"measurement": "GI50", "setting": "[12]; [26]", "value": 3.11, "unit": "µM"}, {"measurement": "CC50", "setting": "[12]; [27]", "value": 45.5, "unit": "µM"}, {"measurement": "TGI", "setting": "[12]", "value": 9.84, "unit": "µM"}, {"measurement": "LC50", "setting": "[13]; Homo sapiens", "value": 69.7, "unit": "µM"}, {"measurement": "GI50", "setting": "[13]; [26]", "value": 3.59, "unit": "µM"}, {"measurement": "TGI", "setting": "[13]", "value": 13.80, "unit": "µM"}, {"measurement": "GI50", "setting": "[14]; Homo sapiens, IGROV-1, read-out: GI50 Conc. per Cell Line", "value": 1.65, "unit": "µM"}, {"measurement": "CC50", "setting": "[14]; Homo sapiens, IGROV-1, read-out: LC50 (the source's name)", "value": 9.57, "unit": "µM"}, {"measurement": "TGI", "setting": "[14]", "value": 3.97, "unit": "µM"}, {"measurement": "GI50", "setting": "[15]; [26]", "value": 3.19, "unit": "µM"}, {"measurement": "CC50", "setting": "[15]; [27]", "value": "> 100", "unit": "µM"}, {"measurement": "TGI", "setting": "[15]", "value": 11.50, "unit": "µM"}, {"measurement": "TGI", "setting": "[16]", "value": 6.03, "unit": "µM"}, {"measurement": "GI50", "setting": "[16]; [26]", "value": 2.1, "unit": "µM"}, {"measurement": "CC50", "setting": "[16]; [27]", "value": 25.6, "unit": "µM"}, {"measurement": "GI50", "setting": "[17]; [26]", "value": 1.86, "unit": "µM"}, {"measurement": "CC50", "setting": "[17]; [27]", "value": 7.76, "unit": "µM"}, {"measurement": "TGI", "setting": "[17]", "value": 3.80, "unit": "µM"}, {"measurement": "GI50", "setting": "[18]; [26]", "value": 2.95, "unit": "µM"}, {"measurement": "CC50", "setting": "[18]; [27]", "value": 56.7, "unit": "µM"}, {"measurement": "TGI", "setting": "[18]", "value": 6.59, "unit": "µM"}, {"measurement": "GI50", "setting": "[19]; [26]", "value": 1.86, "unit": "µM"}, {"measurement": "CC50", "setting": "[19]; [27]", "value": 25.7, "unit": "µM"}, {"measurement": "TGI", "setting": "[19]", "value": 6.38, "unit": "µM"}, {"measurement": "LC50", "setting": "[20]; Homo sapiens", "value": 8.55, "unit": "µM"}, {"measurement": "GI50", "setting": "[20]; [26]", "value": 1.65, "unit": "µM"}, {"measurement": "TGI", "setting": "[20]", "value": 3.76, "unit": "µM"}, {"measurement": "LC50 (concentration killing 50% of cells)", "setting": "[21]; Homo sapiens", "value": 12.6, "unit": "µM"}, {"measurement": "GI50", "setting": "[21]; [26]", "value": 1.94, "unit": "µM"}, {"measurement": "TGI", "setting": "[21]", "value": 4.55, "unit": "µM"}, {"measurement": "GI50", "setting": "[22]; [28]", "value": 2.71, "unit": "µM"}, {"measurement": "GI50 Selectivity Ratio (MID a/MID b)", "setting": "[22]", "value": 0.93}, {"measurement": "GI50 Selectivity Ratio (MID a/MID b)", "setting": "[23]", "value": 0.96}, {"measurement": "GI50", "setting": "[23]; [28]", "value": 2.63, "unit": "µM"}, {"measurement": "GI50 Selectivity Ratio (MID a/MID b)", "setting": "[24]", "value": 1.15}, {"measurement": "GI50", "setting": "[24]; [28]", "value": 2.19, "unit": "µM"}, {"measurement": "IC50", "setting": "[25]", "value": "0.6 ± 0.05", "unit": "µM"}]}]}
